Broadly, the pKd is the negative decadic logarithm of the Kd, by convention in mol/L. A lower pKd goes with a large Kd. For orientation: pIC50 means the negative decadic logarithm of the IC50, by convention in mol/L. A lower pIC50 goes with a large IC50.

This is an account of results in patent US12187709B2 (Genentech, Inc., priority 2021, dated 2025).

The structures appear in SMILES notation. pIC50, pKd: −log10 of the molar value.

The target in assay [1] is Human Cbl-b (residues 40-426) (Homo sapiens (Human), UniProt Q13191). The assay can be described thus: Cbl-b SPR assay. The format is binding. The note with it: for Fold of selectivity: C-cbl SPR Kd vs Cbl-b SPR Kd; for pKd: SPR, 20° C. The gist of the method: (§1)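 First, protein is captured to 1300-1500 RU. Then compound runs in single cycle kinetics, a blank plus 5 two-fold concentrations up to 500 nM (120 s contact, 50 μl/min, 450 s dissociation). Chaser injections (20 s, 30 μl/min) track occupancy, giving kd, which is fixed when fitting the titration.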
In general terms: Surface plasmon resonance follows binding to a sensor surface in real time, without labels.

Assay [2] addresses Cbl-b (Homo sapiens (Human), UniProt Q13191). In words: Cbl-b LCK Ub TR-FRET assay (Cbl-b Lck HTRF). The format is biochemical. Conditions: for pIC50: Cbl-b LCK Ub TR-FRET. The essentials: (§2)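 Signal is read once the detection mix has stood 20 min at ambient temperature. Curves are anchored by DMSO as maximum and by omission of LCK as minimum.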
A general note: Time-resolved FRET reads energy transfer from a long-lived donor to a nearby acceptor.

In assay [3] the target is c-Cbl (Homo sapiens (Human), UniProt P22681). The assay can be described thus: C-Cbl LCK Ub TR-FRET assay (C-cbl Lck HTRF). The format is biochemical. The gist of the method:
as §2

Assay [4] addresses c-Cbl (residues 47-435) (Homo sapiens (Human), UniProt P22681). The assay can be described thus: c-Cbl SPR assay. The format is binding. Conditions: 20° C. The gist of the method:
as §1

[5] abbreviates: ratio C-cbl Lck HTRF IC50 / Cbl-b Lck HTRF IC50.

Chain of c-Cbl (P22681 47-435): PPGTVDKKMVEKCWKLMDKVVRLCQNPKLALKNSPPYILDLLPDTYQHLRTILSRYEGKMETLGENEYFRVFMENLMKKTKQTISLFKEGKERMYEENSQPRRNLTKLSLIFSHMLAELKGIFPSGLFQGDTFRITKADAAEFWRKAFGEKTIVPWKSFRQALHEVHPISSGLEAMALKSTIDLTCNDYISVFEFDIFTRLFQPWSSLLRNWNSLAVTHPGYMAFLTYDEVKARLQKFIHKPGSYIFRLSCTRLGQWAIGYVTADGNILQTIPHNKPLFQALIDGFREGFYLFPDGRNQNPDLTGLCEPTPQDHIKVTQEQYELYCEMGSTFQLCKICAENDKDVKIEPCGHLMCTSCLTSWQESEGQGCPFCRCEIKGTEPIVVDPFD
Chain of c-Cbl (residues 47-435) (P22681 47-435): as above
Chain of Cbl-b (Q13191 40-426): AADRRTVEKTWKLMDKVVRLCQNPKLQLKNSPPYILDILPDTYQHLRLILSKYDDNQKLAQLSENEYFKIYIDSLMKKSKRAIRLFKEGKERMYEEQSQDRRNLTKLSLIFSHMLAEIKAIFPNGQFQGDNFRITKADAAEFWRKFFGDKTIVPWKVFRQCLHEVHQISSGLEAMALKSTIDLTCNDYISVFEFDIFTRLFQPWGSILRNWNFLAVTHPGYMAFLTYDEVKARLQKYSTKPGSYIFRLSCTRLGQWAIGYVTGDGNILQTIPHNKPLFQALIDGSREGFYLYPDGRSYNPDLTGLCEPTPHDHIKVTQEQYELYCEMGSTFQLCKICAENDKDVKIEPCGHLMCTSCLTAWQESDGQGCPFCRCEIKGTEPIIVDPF
Chain of Human Cbl-b (residues 40-426) (Q13191 40-426): as above

In assay [1], `Cn1cnnc1[C@@H](c1cc(Cl)cc(N2Cc3c(cc(CNC4(C)CCC4)cc3C(F)(F)F)C2=O)c1)C1COC1` (single isomer, unassigned) [Compound 408] returned a Fold of selectivity of 1.8×. Further, the values for the pKd in assay [1] and in assay [4] were 6.36 and 6.11, respectively. In addition, the pIC50 in assay [2] (Example 121) was 6.27; in assay [3], 6.11. Also, in assay [2] (setting [5]), the “(fold-selectivity) Cbl-b and C-Cbl Selectivity” value is on record as 1.4 x.
As to `Cn1cnnc1[C@H](c1cc(Cl)cc(N2Cc3c(cc(CNC4(C)CCC4)cc3C(F)(F)F)C2=O)c1)C1COC1` (single isomer, unassigned) [Compound 409], in assay [1], the Fold of selectivity was found to be 1.4×. Besides, the values for the negative-log Kd (pKd) in assay [1] and in assay [4] were 7.21 and 7.05, respectively. Moreover, the values for the pIC50 in assay [2] (Example 121) and in assay [3] were 7.28 and 7.24, respectively. In addition, in assay [2] (setting [5]), the “(fold-selectivity) Cbl-b and C-Cbl Selectivity” value is reported as 1.1x.
Consider `C[C@@H](NC1(C)CCC1)c1cc2c(c(C(F)F)c1)CN(c1cccc([C@H](c3nncn3C)C3COC3)c1)C2=O` (single isomer, unassigned) [Compound 412], for which the Fold of selectivity in assay [1] stood at 16×. For the same compound, the pKd in assay [1] was 8.28; in assay [4], 7.09. The pIC50 in assay [2] (Example 121) is 7.85; in assay [3], 7.23. Besides, the “(fold-selectivity) Cbl-b and C-Cbl Selectivity” value in assay [2] (setting [5]) was 4.2x.
In assay [1], `C[C@H](NC1(C)CCC1)c1cc2c(c(C(F)F)c1)CN(c1cccc([C@H](c3nncn3C)C3COC3)c1)C2=O` (single isomer, unassigned) [Compound 413] yielded a Fold of selectivity of 5.3×. Besides, the values for the pKd in assay [1] and in assay [4] were 9.52 and 8.80, respectively. Further, the values for the negative logarithm of the IC50 (pIC50) in assay [2] (Example 121) and in assay [3] were 8.35 and 8.15, respectively. Also, the “(fold-selectivity) Cbl-b and C-Cbl Selectivity” value in assay [2] (setting [5]) worked out at 1.6x.
In assay [1], `Cn1cnnc1[C@@H](c1cccc(N2Cc3c(cc(CNC4(C)CCC4)cc3C(F)(F)F)C2=O)c1)C1(O)CCC1` (single isomer, unassigned) [Compound 429] gave a Fold of selectivity of 4.8×. Besides, the values for the negative logarithm of the Kd (pKd) in assay [1] and in assay [4] were 7.38 and 6.77, respectively. Also, the pIC50 in assay [2] (Example 121) is 7.43; in assay [3], 6.70. In assay [2] (setting [5]), the “(fold-selectivity) Cbl-b and C-Cbl Selectivity” value stood at 5.1x.
Regarding `Cn1cnnc1[C@@H](c1cccc(N2Cc3c(cc([C@@H](NC4(C)CCC4)C4CC4)cc3C(F)(F)F)C2=O)c1)C1COC1` (single isomer, unassigned) [Compound 430], in assay [1], the Fold of selectivity was determined as 14×. The pKd in assay [1] was 8.23; in assay [4], 7.13. Moreover, the negative logarithm of the IC50 (pIC50) is 7.72 in assay [2] (Example 121) and 7.04 in assay [3]. The “(fold-selectivity) Cbl-b and C-Cbl Selectivity” value in assay [2] (setting [5]) is 4.7x.
Compound `Cn1cnnc1[C@@H](c1cccc(N2Cc3c(cc([C@H](NC4(C)CCC4)C4CC4)cc3C(F)(F)F)C2=O)c1)C1COC1` (single isomer, unassigned) [Compound 431] had a Fold of selectivity in assay [1] of 3.1×. Further, the negative-log Kd (pKd) was 9.40 in assay [1] and 8.89 in assay [4]. In addition, the pIC50 was 8.28 in assay [2] (Example 121) and 8.24 in assay [3]. For the same compound, in assay [2] (setting [5]), the “(fold-selectivity) Cbl-b and C-Cbl Selectivity” value amounted to 1.1x.
As to `Cn1cnnc1[C@@H](c1cccc(N2Cc3c(cc([C@H](NC4(C)CCC4)C4CCC4)cc3C(F)(F)F)C2=O)c1)C1COC1` (single isomer, unassigned) [Compound 432], the Fold of selectivity in assay [1] came to 3.6×. Besides, the pKd in assay [1] was 9.40; in assay [4] it was 8.82. Besides, the negative-log IC50 (pIC50) in assay [2] (Example 121) is 8.26; in assay [3] it was 8.15. In addition, the “(fold-selectivity) Cbl-b and C-Cbl Selectivity” value in assay [2] (setting [5]) came to 1.3x.
As to `Cn1cnnc1[C@@H](c1cccc(N2Cc3c(cc([C@@H](NC4(C)CCC4)C4CCC4)cc3C(F)(F)F)C2=O)c1)C1COC1` (single isomer, unassigned) [Compound 433], the Fold of selectivity in assay [1] turned out to be 10×. Further, the pKd is 8.07 in assay [1] and 7.07 in assay [4]. For the same compound, the negative logarithm of the IC50 (pIC50) in assay [2] (Example 121) was 7.77; in assay [3] it was 7.11. The “(fold-selectivity) Cbl-b and C-Cbl Selectivity” value in assay [2] (setting [5]) stood at 4.7x.
`Cn1cnnc1[C@H](c1cccc(N2Cc3c(cc([C@H](NC4(C)CCC4)C4CCC4)cc3C(F)(F)F)C2=O)c1)C1COC1` (single isomer, unassigned) [Compound 434] yielded a Fold of selectivity in assay [1] of 13×. The pKd in assay [1] is 6.72; in assay [4] it was 5.60. For the same compound, the results for the pIC50 in assay [2] (Example 121) and in assay [3] were 6.80 and 6.29, respectively. Besides, the “(fold-selectivity) Cbl-b and C-Cbl Selectivity” value in assay [2] (setting [5]) is on record as 3.1x.
In assay [1], `CC1(NCc2cc3c(c(C(F)(F)F)c2)CN(c2cccc([C@@H](C4COC4)n4ccnn4)c2)C3=O)CCC1` (single isomer, unassigned) [Compound 436] had a Fold of selectivity of 5.3× and a negative logarithm of the Kd (pKd) of 6.22. Also, in assay [2] (setting [5]), the “(fold-selectivity) Cbl-b and C-Cbl Selectivity” value was 4.2x. In addition, the pIC50 in assay [3] is 5.62. This compound also gave a pKd in assay [4] of 5.46.
`C[C@H](NC1(C)CCC1)c1cc2c(c(C(F)(F)F)c1)CN(c1cccc([C@@H](c3nncn3C)C3COC3)c1)C2=O` (single isomer, unassigned) [Compound 442] registered a Fold of selectivity in assay [1] of 18×. In addition, the pKd was 6.74 in assay [1] and 5.48 in assay [4]. Moreover, the pIC50 was 6.59 in assay [2] (Example 121) and 5.55 in assay [3]. The “(fold-selectivity) Cbl-b and C-Cbl Selectivity” value in assay [2] (setting [5]) is reported as 11x.
On to `Cn1cnnc1[C@H](c1cccc(N2Cc3c(cc([C@H](NC4(C)CCC4)C4CC4)cc3C(F)(F)F)C2=O)c1)C1COC1` (single isomer, unassigned) [Compound 456], for which the Fold of selectivity in assay [1] was 18×. For the same compound, the negative-log Kd (pKd) is 6.64 in assay [1] and 5.39 in assay [4]. The results for the pIC50 in assay [2] (Example 121) and in assay [3] were 6.44 and 5.62, respectively. Besides, the “(fold-selectivity) Cbl-b and C-Cbl Selectivity” value in assay [2] (setting [5]) is 6.5x.
In the case of `Cn1cnnc1[C@@H](c1cccc(N2Cc3c(cc(CNC4(C)CCC4)cc3C(F)F)C2=O)c1)C1CC(F)C1` (single isomer, unassigned) [Compound 458], in assay [1], the Fold of selectivity came to 10×. For the same compound, the pKd in assay [1] is 8.24; in assay [4], 7.24. Moreover, the results for the negative-log IC50 (pIC50) in assay [2] (Example 121) and in assay [3] were 7.85 and 7.37, respectively. For the same compound, in assay [2] (setting [5]), the “(fold-selectivity) Cbl-b and C-Cbl Selectivity” value is reported as 3.1x.
In assay [1], `Cn1cnnc1[C@@H](c1cccc(N2Cc3c(cc(CNC4(C)CCC4)cc3C(F)F)C2=O)c1)C1CC(F)C1` (single isomer, unassigned) [Compound 459] showed a Fold of selectivity of 6.1×. The pKd was 9.30 in assay [1] and 8.49 in assay [4]. Besides, the pIC50 is 8.23 in assay [2] (Example 121) and 8.20 in assay [3]. The “(fold-selectivity) Cbl-b and C-Cbl Selectivity” value in assay [2] (setting [5]) stood at 1.1x.
`CC(C)CNCc1cc2c(c(C(F)(F)F)c1)CN(c1cccc([C@H](c3nncn3C)C3COC3)c1)C2=O` (single isomer, unassigned) [Compound 464] returned a Fold of selectivity in assay [1] of 3.3×. The negative logarithm of the Kd (pKd) in assay [1] was 8.96; in assay [4] it was 8.44. Besides, the pIC50 was 8.19 in assay [2] (Example 121) and 8.15 in assay [3]. Further, in assay [2] (setting [5]), the “(fold-selectivity) Cbl-b and C-Cbl Selectivity” value worked out at 1.1x.
Regarding `Cn1cnnc1[C@@H](c1cccc(N2Cc3c(cc(CNC4(C)CC4)cc3C(F)(F)F)C2=O)c1)C1COC1` (single isomer, unassigned) [Compound 466], in assay [1], the Fold of selectivity is on record as 3.6×. For the same compound, the negative logarithm of the Kd (pKd) in assay [1] was 8.60; in assay [4], 8.04. For the same compound, the negative logarithm of the IC50 (pIC50) is 8.21 in assay [2] (Example 121) and 8.07 in assay [3]. The “(fold-selectivity) Cbl-b and C-Cbl Selectivity” value in assay [2] (setting [5]) worked out at 1.4x.
For `Cn1cnnc1[C@@H](c1cccc(N2Cc3c(cc(CNCC(C)(C)C)cc3C(F)(F)F)C2=O)c1)C1COC1` (single isomer, unassigned) [Compound 468], the Fold of selectivity in assay [1] is 7×. The figures for the pKd in assay [1] and in assay [4] were 8.80 and 7.92, respectively. Also, the results for the pIC50 in assay [2] (Example 121) and in assay [3] were 8.28 and 8.12, respectively. The “(fold-selectivity) Cbl-b and C-Cbl Selectivity” value in assay [2] (setting [5]) stood at 1.4x.
The compound `CO[C@H]1C[C@](c2cccc(N3Cc4c(cc(CN[C@@H]5C[C@H]5C(C)(F)F)cc4C(F)(F)F)C3=O)c2)(c2nncn2C)C1` (single isomer, unassigned) [Compound 506] gave a Fold of selectivity in assay [1] of 8.1×. In addition, the pKd in assay [1] is 7.26; in assay [4], 6.35. Moreover, the pIC50 in assay [2] (Example 121) is 7.66; in assay [3], 6.74. Also, in assay [2] (setting [5]), the “(fold-selectivity) Cbl-b and C-Cbl Selectivity” value amounted to 8.0x.
As for `CO[C@H]1C[C@@H]([C@@H](c2cccc(N3Cc4c(cc(CN5CCN(C)C[C@@H]5C(C)C)cc4C(F)(F)F)C3=O)c2)c2nncn2C)C1` (stereo in doubt) [Compound 13, 6-(((S)-2-isopropyl-4-methylpiperazin-1-yl)methyl)-2-(3-((S)-((1 S,3S)-3-methoxycyclobutyl)(4-methyl-4H-1,2,4-triazol-3-yl)methyl)phenyl)-4-(trifluoromethyl)isoindolin-1-one], the Fold of selectivity in assay [1] is 4.1×. Also, the pKd in assay [1] was 6.92; in assay [4], 6.31. Moreover, the figures for the pIC50 in assay [2] and in assay [3] were 6.70 and 6.27, respectively. Further, the “fold-selectivity (Cbl-b over C-cbl)” value in assay [2] (setting [5]) was “(2.7x)”.
